Data: US10966996B2, “Glechoma longitube extract, preparation method for same, and use thereof in sugar reduction, weight loss, and lipid reduction” (SHANGHAI INSTITUTE OF MATERIA MEDICA CHINESE ACADEMY OF …, priority 2014, dated 2021)
“Also recorded” adds a separate entry of the source.

Tests used:
[1] = test system: db/db mice; assay: acute oral glucose tolerance in db/db mice; type: in vivo; details: 100 mg/kg
Protocol: Oral glucose tolerance test (OGTT) method: 8-week old male C57BL/KsJ mice (Shanghai Slac Laboratory Animal Company), 8 for each group, weight of 20±2 g, were fed according to SPF grade operation procedure and fasted for 16 hours prior to experiment. Blood was collected from tail vein of each group of mice prior to experiment. Blood glucose concentrations were measured using Roche ACCU-CHEK glucometer and recorded as time 0. Different concentrations of the compound were intragastric administrated to each administration group of mice, respectively. Equal volume of distilled water was given to control group of mice. The dosage volume was 10 ml/kg. Half an hour after administration, 5 g/kg glucose was intragastric administrated to each group of mice. Blood glucose concentrations of each group of mice were measured and recorded at 20 mins, 40 mins, and 80 mins after the intragastric administration. OGTT curves were recorded. Areas under the curves (AUC) were calibrated with the data in blood glucose of mice to which glucose was not given (calibration group). ONE-WAY-ANOVA was used to compare significant difference between each group (Note: all the experimental methods for acute oral glucose tolerance test in the following activity examples are the same to the experimental method in Example 5, unless otherwise indicated). […]

[2] = test system: db/db mice; assay: long term administration of Compound I in db/db mice; type: in vivo; details: 50 mg/kg once a day
Protocol: After the end of the acute experiment, each group of mice undergone long term administration experiment following the grouping in below: equal volume of distilled water was given to control group of mice; Compound I at the dosage of 50 mg/kg was given to administration group; DDP4 inhibitor, Sitagliptin, at 10 mg/kg was intragastric administrated to positive control group. Dosage volume was 10 ml/kg, once a day for 4 weeks. Weight, blood glucose, and dietary change of the mice were monitored every week. The improvement of diabetic symptom of spontaneous diabetes mellitus type 2 model db/db mice by long term administration of Compound I was evaluated.

[3] = two weeks after the administration

For `O=C(O)C1O[C@@H](OC2C(O)[C@H](O)C(C(=O)O)O[C@H]2Oc2cc(O)c3c(=O)cc(-c4ccc(O)c(O)c4)oc3c2)C(O)C(O)[C@@H]1O` (stereo partly drawn) [Compound I, luteolin-7-O-[β-glucuronosyl(1→2)β-glucuronic acid]], which “acute oral glucose tolerance in db/db mice” value [1] is on record?
Its value is “significantly enhances acute oral glucose tolerance”.

What about the “weight and diet of the mice” value [2] of the same compound?
Its value is “did not significantly affect the weight and diet of the mice”.

What about the fasting blood glucose [2, 3] of the same compound?
Its fasting blood glucose is “significantly decreased; also recorded: lowered fasting blood glucose of mice”.

What about the instant blood glucose [2, 3] of the same compound?
Its instant blood glucose is “significantly decreased; also recorded: lowered instant blood glucose of mice”.
